The assay has as its system T-47D. The experiment in a line: Caspase cascade activation in T-47D solid tumor cells (fluorogenic N-(Ac-DEVD)-N'-ethoxycarbonyl-R110 substrate). Format: cell-based, Human. The following applies: T-47D (24 hr); for EC50: Homo sapiens, T47D, read-out: Caspase Potency EC50; for Caspase Activity Ratio: ratio of net RFU of test compound to that of control samples. As to the method: Human breast cancer cell lines T-47D and DLD-1 were grown according to media component mixtures designated by American Type Culture Collection+10% FCS (Invitrogen Corporation), in a 5% CO2-95% humidity incubator at 37° C. T-47D and DLD-1 cells were maintained at a cell density between 50 and 80% confluency at a cell density of 0.1 to 0.6×10^6 cells/mL. Cells were harvested at 600×g and resuspended at 0.65×10^6 cells/mL into appropriate media+10% FCS. An aliquot of 22.5 μL of cells was added to a well of a 384-well microtiter plate containing 2.5 μL of a 10% DMSO in RPMI-1640 media solution containing 0.16 to 100 μM of (2-chloro-quinazolin-4-yl)-(4-dimethylaminophenyl)-methylamine or other test compound (0.016 to 10 μM final). An aliquot of 22.5 μL of cells was added to a well of a 384-well microtiter plate containing 2.5 μL of a 10% DMSO in RPMI-1640 media solution without test compound as the control sample. […] After incubation, the samples were removed from the incubator and 25 μL of a solution containing 14 μM of N-(Ac-DEVD)-N′-ethoxycarbonyl-R110 fluorogenic substrate (Cytovia, Inc.; WO99/18856), 20% sucrose (Sigma), 20 mM DTT (Sigma), 200 mM NaCl (Sigma), 40 mM Na PIPES buffer pH 7.2 (Sigma), and 500 μg/mL lysolecithin (Calbiochem) was added. The samples were mixed by agitation and incubated at room temperature. Using a fluorescent plate reader (Model SPECTRAfluor Plus, Tecan), an initial reading (T=0) was made approximately 1-2 min after addition of the substrate solution, employing excitation at 485 nm and emission at 530 nm, to determine the background fluorescence of the control sample. After the 3 h incubation, the samples were read for fluorescence as above (T=3 h).
The Relative Fluorescence Unit values (RFU) were used to calculate the sample readings as follows: RFU(T=3h)−Control RFU(T=0)=Net RFU(T=3h)
The activity of caspase cascade activation was determined by the ratio of the net RFU value for (2-chloro-quinazolin-4-yl)-(4-dimethylaminophenyl)-methylamine or other test compounds to that of control samples. The EC50 (nM) was determined by a sigmoidal dose-response calculation (Prism 3.0, GraphPad Software Inc.).

By EC50 is commonly meant the midpoint of the concentration-response curve. For the compound `CNc1nc(N(C)c2ccc(N(C)C)cc2)c2ccccc2n1` [Example 15, (2-Methylamino-quinazolin-4-yl)-(4-dimethylaminophenyl)-methylamine], the concentration giving a half-maximal response (EC50) was found to be 0.039 µM and the “Caspase Activity Ratio” value worked out at 3.9.
For `COC(=O)Nc1ccc(N(C)c2nc(C)nc3ccccc23)cc1` [Example 4, (2-Methyl-quinazolin-4-yl)-(4-methoxycarbonylamino-phenyl)-methylamine], the half-maximal effective concentration (EC50) is 0.073 µM and the “Caspase Activity Ratio” value was found to be 8.5.
The matching figures for `COc1c(Br)cc(N(C)c2nc(C)nc3cc([N+](=O)[O-])ccc23)cc1Br` [Example 2, (3,5-Dibromo-4-methoxyphenyl)-(2-methyl-7-nitroquinazolin-4-yl)-methylamine]: over 10 µM and 1.1.
On to `Cc1nc(N(C)c2ccc(N(C)C)cc2)c2cc([N+](=O)[O-])ccc2n1` [Example 10, (2-Methyl-6-nitroquinazolin-4-yl)-(4-dimethylaminophenyl)-methylamine], for which the EC50 came out at 0.979 µM and the “Caspase Activity Ratio” value is on record as 2.6.
As to `Cc1nc(N(C)c2ccc3c(c2)nnn3C)c2ccccc2n1` [Example 23, (1-Methyl-1H-benzotriazol-5-yl)-(2-methyl-quinazolin-4-yl)-methylamine], the EC50 was over 10 µM and the “Caspase Activity Ratio” value is 1.1.
Consider `Cc1nc(N(C)c2ccc(NC(N)=O)cc2)c2ccccc2n1` [Example 5, (2-Methyl-quinazolin-4-yl)-(4-ureido-phenyl)-methylamine], for which the EC50 turned out to be 0.032 µM and the “Caspase Activity Ratio” value came to 9.3.
The matching figures for `COc1cc(Nc2nc(C)nc3ccccc23)cc(OC)c1OC` [Example 38, (2-Methyl-quinazolin-4-yl)-(3,4,5-trimethoxy-phenyl)-amine]: over 10 µM and 0.9.
For `COc1ccc(N(C)c2nc(C)nc3ccc(N(C)C(C)=O)cc23)cc1` [Example 40, (6-N-methyl-acetamido-2-methyl-quinazolin-4-yl)-(4-methoxy-phenyl)-methylamine], the concentration giving a half-maximal response (EC50) amounted to 0.29 µM and the “Caspase Activity Ratio” value came out at 2.7.
The matching figures for `COc1ccc(CNc2nc(N(C)c3ccc(OC)cc3)c3ccccc3n2)cc1` [Example 9]: 0.258 µM and 5.6.
For `CC(=O)N(C)c1ccc(N(C)c2nc(C)nc3ccccc23)cc1` [Example 6, (2-Methyl-quinazolin-4-yl)-(N-methyl-4-acetamido-phenyl)-methylamine], the EC50 amounted to 0.21 µM and the “Caspase Activity Ratio” value is 9.2.
For the compound `Cc1nc(N(C)c2ccc(N(C)C)nc2)c2ccccc2n1` [Example 27, (2-Dimethylamino-pyridine-5-yl)-(2-methyl-quinazolin-4-yl)-methylamine], the EC50 stood at 0.014 µM and the “Caspase Activity Ratio” value came to 9.0.
The matching figures for `COc1ccc(Nc2nc(C)nc3ccc([N+](=O)[O-])cc23)cc1OC` [Example 34, (3,4-Dimethoxy-phenyl)-(2-methyl-6-nitro-quinazolin-4-yl)-amine]: over 10 µM and 1.1.
The matching figures for `Cc1nc(Nc2ccc(N(C)C)nc2)c2ccccc2n1` [Example 26, (2-Dimethylamino-pyridine-5-yl)-(2-methyl-quinazolin-4-yl)-amine]: over 10 µM and 1.3.
Regarding `COc1ccc(N(C)c2nc(NCc3ccccc3)nc3ccccc23)cc1` [Example 3, (2-Benzylamino-quinazolin-4-yl)-(4-methoxyphenyl)-methylamine], the EC50 was 0.075 µM and the “Caspase Activity Ratio” value was 8.2.
Regarding `CSc1ccc(N(C)c2nc(C)nc3ccccc23)cc1` [Example 21, (4-Methylthio-phenyl)-(2-methyl-quinazolin-4-yl)-methylamine], the EC50 was determined as 0.004 µM and the “Caspase Activity Ratio” value was determined as 7.5.

The record behind these values is patent US7989462B2, “4-arylamin-or-4-heteroarylamino-quinazolines and analogs as activators of caspases and inducers of apoptosis and the use thereof” (Myrexis, Inc., priority 2003, dated 2011).
